Patent US10508085B2, “Compounds and methods for IDO and TDO modulation, and indications therefor” (Plexxikon Inc., priority 2016, dated 2019)

Tests used:
[1] = biological target: T1, Human Indoleamine 2,3-dioxygenase (IDO) (Homo sapiens, UniProt P14902); test: Human IDO enzymatic assay (kynurenine level); format: biochemical; conditions: 6 nM IDO, 10 μM L-Trp; geometric mean; read-out: IDO1 GMean: IC50 (μM) (Biochemical Assay)
T1 construct: His tag (N); made in house; host or cells: E. coli
Protocol: (§1) Human Indoleamine 2,3-dioxygenase (IDO) and Tryptophan 2,3-dioxygenase (TDO) enzymatic assay
(§2) Human IDO or TDO with N-terminal His tag is purified in E. coli. The IDO enzymatic assay is performed using 6 nM IDO and 10 μM L-Trp in the presence of 10 mM ascorbic acid, 5 μM methylene blue, 100 nM catalase and 0.01% Tween 20 in 50 mM sodium phosphate buffer (pH 6.5). 19 μL of above reaction mixture is added to wells of 384 well reaction plate containing […] of various concentrations of test compound or DMSO vehicle and incubated for 20 minutes at room temperature. The TDO enzymatic reaction assay is performed using 1 nM TDO and 350 μM L-Trp in the presence of 10 mM ascorbic acid, 0.4 μM methylene blue, 100 nM catalase and 0.01% Tween 20 in 50 mM sodium phosphate buffer (pH 6.5). 19 μL of above reaction mixture is added to wells of 384 well reaction plate containing 1 μL of various concentrations of test compound or DMSO vehicle and incubated for 70 minutes at room temperature. 16 wells containing all the components of reaction mixture and 5% DMSO serve as high control. 16 well containing all the components except enzyme of reaction mixture and 5% DMSO serves as low control. Both IDO and TDO enzymatic reactions are stopped by addition of […] of 30% TCA and incubated 30 minutes at 50° C. to hydrolyze N-formylkynurenine produced by IDO or TDO to kynurenine. Upon measuring the kynurenine level, the percentage inhibition is calculated at individual concentrations relative to high and low controls. The data is analyzed by using nonlinear regression to generate IC50 values.

[2] = biological target: T2, Human Tryptophan 2,3-dioxygenase (TDO) (Homo sapiens, UniProt P48775); test: Human TDO enzymatic assay (kynurenine level); format: biochemical; conditions: 1 nM TDO, 350 μM L-Trp; geometric mean; read-out: TDO GMean: IC50 (μM) (Biochemical Assay)
T2 construct: His tag (N); made in house; host or cells: E. coli
T2 sequence (P48775 whole entry): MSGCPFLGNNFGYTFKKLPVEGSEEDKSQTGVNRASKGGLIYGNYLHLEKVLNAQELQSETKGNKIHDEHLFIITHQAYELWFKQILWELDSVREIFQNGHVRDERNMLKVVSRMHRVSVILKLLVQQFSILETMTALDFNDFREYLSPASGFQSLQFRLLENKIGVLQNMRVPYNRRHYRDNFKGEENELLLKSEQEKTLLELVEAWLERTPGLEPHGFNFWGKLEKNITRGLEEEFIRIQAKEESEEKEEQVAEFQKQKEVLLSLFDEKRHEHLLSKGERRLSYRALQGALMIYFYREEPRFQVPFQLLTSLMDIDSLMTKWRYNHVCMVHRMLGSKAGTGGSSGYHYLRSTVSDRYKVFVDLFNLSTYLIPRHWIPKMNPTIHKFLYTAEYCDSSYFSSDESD
Protocol: as §1, §2

T1 sequence (P14902 whole entry): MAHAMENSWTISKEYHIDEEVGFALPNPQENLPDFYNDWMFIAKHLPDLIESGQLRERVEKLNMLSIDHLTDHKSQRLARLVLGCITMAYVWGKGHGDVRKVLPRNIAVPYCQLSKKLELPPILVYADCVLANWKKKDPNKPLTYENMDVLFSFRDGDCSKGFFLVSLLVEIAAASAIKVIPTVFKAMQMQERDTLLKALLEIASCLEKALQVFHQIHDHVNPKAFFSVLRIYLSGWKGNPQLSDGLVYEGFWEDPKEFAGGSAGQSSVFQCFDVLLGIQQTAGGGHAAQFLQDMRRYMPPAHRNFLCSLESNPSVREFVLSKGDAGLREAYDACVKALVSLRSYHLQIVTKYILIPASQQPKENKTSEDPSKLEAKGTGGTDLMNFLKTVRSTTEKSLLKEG

| IC50 [1] | IC50 [2] | Compound |
| --- | --- | --- |
| 0.0001 to 10 µM | 0.0001 to 10 µM | OC(c1ccc(Cl)c2cn[nH]c12)C1CCCCC1 (centres unmarked) [Compound P-0003, (4-chloro-1H-indazol-7-yl)(cyclohexyl)methanol] |
| 0.0001 to 10 µM | 10 to 100 µM | CCCOc1ccc(C(O)c2cccc3cncn23)cc1 (centres unmarked) [Compound P-0064, imidazo[1,5-a]pyridin-5-yl(4-propoxyphenyl)methanol] |
| 0.0001 to 10 µM | 10 to 100 µM | OC(c1ccc(OC(F)(F)F)cc1)c1cccc2cncn12 (centres unmarked) [Compound P-0065, imidazo[1,5-a]pyridin-5-yl(4-(trifluoromethoxy)phenyl)methanol] |
| 0.0001 to 10 µM | 0.0001 to 10 µM | OC(c1ccccc1F)c1cccc2cncn12 (centres unmarked) [Compound P-0066, (2-fluorophenyl)(imidazo[1,5-a]pyridin-5-yl)methanol] |
| 100 to 200 µM | 0.0001 to 10 µM | OC(c1ccccc1C(F)(F)F)c1cccc2cncn12 (centres unmarked) [Compound P-0067, imidazo[1,5-a]pyridin-5-yl(2-(trifluoromethyl)phenyl)methanol] |
| 0.0001 to 10 µM | 0.0001 to 10 µM | OC(c1cccc(F)c1)c1cccc2cncn12 (centres unmarked) [Compound P-0068, (3-fluorophenyl)(imidazo[1,5-a]pyridin-5-yl)methanol] |
| 10 to 100 µM | 10 to 100 µM | OC(c1cccc(N2CCOCC2)c1)c1cccc2cncn12 (centres unmarked) [Compound P-0069, imidazo[1,5-a]pyridin-5-yl(3-morpholinophenyl)methanol] |
| 100 to 200 µM | 100 to 200 µM | OC(c1cccc(-n2ccnc2)c1)c1cccc2cncn12 (centres unmarked) [Compound P-0070, (3-(1H-imidazol-1-yl)phenyl)(imidazo[1,5-a]pyridin-5-yl)methanol] |
| 0.0001 to 10 µM | 10 to 100 µM | OC(c1cccc(OCc2ccccc2)c1)c1cccc2cncn12 (centres unmarked) [Compound P-0071] |
| 10 to 100 µM | 10 to 100 µM | CN(C)c1cccc(C(O)c2cccc3cncn23)c1 (centres unmarked) [Compound P-0072, (3-(dimethylamino)phenyl)(imidazo[1,5-a]pyridin-5-yl)methanol] |
| 0.0001 to 10 µM | 10 to 100 µM | OC(c1cccc(N2CCCCC2)c1)c1cccc2cncn12 (centres unmarked) [Compound P-0073, imidazo[1,5-a]pyridin-5-yl(3-(piperidin-1-yl)phenyl)methanol] |
| 0.0001 to 10 µM | 0.0001 to 10 µM | OC(c1cccc2cncn12)C1CCOCC1 (centres unmarked) [Compound P-0075, imidazo[1,5-a]pyridin-5-yl(tetrahydro-2H-pyran-4-yl)methanol] |
| > 200 µM | 10 to 100 µM | OC(c1ccccc1Cl)c1cccc2cncn12 (centres unmarked) [Compound P-0077, (2-chlorophenyl)(imidazo[1,5-a]pyridin-5-yl)methanol] |
| 0.0001 to 10 µM | 10 to 100 µM | OC(c1cccc(C(F)(F)F)c1)c1cccc2cncn12 (centres unmarked) [Compound P-0078, imidazo[1,5-a]pyridin-5-yl(3-(trifluoromethyl)phenyl)methanol] |
| 0.0001 to 10 µM | – | CC(C)(C1CCN(C(=O)CN2CCS(=O)(=O)CC2)CC1)[C@H](O)c1cc(Cl)cc2cn[nH]c12 [Compound P-0500, (S)-1-(4-(1-(5-chloro-1H-indazol-7-yl)-1-hydroxy-2-methylpropan-2-yl)piperidin-1-yl)-2-(1,1-dioxidothiomorpholino) ethan-1-one] |
| 0.0001 to 10 µM | 0.0001 to 10 µM | O=C(Cc1ccc(Cl)c(F)c1)N1CCC(C(F)(F)[C@H](O)c2cc(Cl)cc3cn[nH]c23)CC1 [Compound P-0571, (R)-1-(4-(2-(5-chloro-1H-indazol-7-yl)-1,1-difluoro-2-hydroxyethyl)piperidin-1-yl)-2-(4-chloro-3-fluorophenyl)ethan-1-one] |
| 0.0001 to 10 µM | 0.0001 to 10 µM | O=C(Cc1ccc(F)c(Cl)c1)N1CCC(C(F)(F)[C@H](O)c2cc(Cl)cc3cn[nH]c23)CC1 [Compound P-0572, (R)-1-(4-(2-(5-chloro-1H-indazol-7-yl)-1,1-difluoro-2-hydroxyethyl)piperidin-1-yl)-2-(3-chloro-4-fluorophenyl)ethan-1-one] |
| 0.0001 to 10 µM | 0.0001 to 10 µM | CC(C)(C1CCN(/C(N)=N/C#N)CC1)C(O)c1cc(Cl)cc2cn[nH]c12 (centres unmarked) [Compound P-0573, (E)-4-(1-(5-chloro-1H-indazol-7-yl)-1-hydroxy-2-methylpropan-2-yl)-N′-cyanopiperidine-1-carboximidamide] |
| 0.0001 to 10 µM | 0.0001 to 10 µM | CCC(=O)N1CCC(C(F)(F)[C@H](O)c2cc(Cl)cc3cn[nH]c23)CC1 [Compound P-0574, (R)-1-(4-(2-(5-chloro-1H-indazol-7-yl)-1,1-difluoro-2-hydroxyethyl)piperidin-1-yl)propan-1-one] |
| 0.0001 to 10 µM | 0.0001 to 10 µM | CNC(=O)N1CCC(C(F)(F)[C@H](O)c2cc(Cl)cc3cn[nH]c23)CC1 [Compound P-0575, (R)-4-(2-(5-chloro-1H-indazol-7-yl)-1,1-difluoro-2-hydroxyethyl)-N-methylpiperidine-1-carboxamide] |
| 0.0001 to 10 µM | 0.0001 to 10 µM | O=C(Cc1ccnc(Cl)c1)N1CCC(C(F)(F)[C@H](O)c2cc(Cl)cc3cn[nH]c23)CC1 [Compound P-0576, (R)-1-(4-(2-(5-chloro-1H-indazol-7-yl)-1,1-difluoro-2-hydroxyethyl)piperidin-1-yl)-2-(2-chloropyridin-4-yl)ethan-1-one] |
| 0.0001 to 10 µM | 0.0001 to 10 µM | CCC(=O)N1CCC(C(F)(F)C(O)c2cc(Cl)cc3[nH]ncc23)CC1 (centres unmarked) [Compound P-0577, 1-(4-(2-(6-chloro-1H-indazol-4-yl)-1,1-difluoro-2-hydroxyethyl)piperidin-1-yl) propan-1-one] |
| 0.0001 to 10 µM | 0.0001 to 10 µM | CNC(=O)N1CCC(C(F)(F)C(O)c2cc(Cl)cc3[nH]ncc23)CC1 (centres unmarked) [Compound P-0578, 4-(2-(6-chloro-1H-indazol-4-yl)-1,1-difluoro-2-hydroxyethyl)-N-methylpiperidine-1-carboxamide] |
| 0.0001 to 10 µM | 0.0001 to 10 µM | CC(C)(C1CCN(C(=O)NCS(C)(=O)=O)CC1)[C@H](O)c1cc(Cl)cc2cn[nH]c12 [Compound P-0579, (S)-4-(1-(5-chloro-1H-indazol-7-yl)-1-hydroxy-2-methylpropan-2-yl)-N-((methylsulfony)methyl)piperidine-1-carboxamide] |
| 0.0001 to 10 µM | 0.0001 to 10 µM | CC(C)(C1CCN(C(=O)NCCF)CC1)[C@H](O)c1cc(Cl)cc2cn[nH]c12 [Compound P-0580, (S)-4-(1-(5-chloro-1H-indazol-7-yl)-1-hydroxy-2-methylpropan-2-yl)-N-(2-fluoroethyl) piperidine-1-carboxamide] |
| 0.0001 to 10 µM | 0.0001 to 10 µM | CC(C)(C1CCN(C(=O)NCC(F)F)CC1)[C@H](O)c1cc(Cl)cc2cn[nH]c12 [Compound P-0581, (S)-4-(1-(5-chloro-1H-indazol-7-yl)-1-hydroxy-2-methylpropan-2-yl)-N-(2,2-difluoroethyl) piperidine-1-carboxamide] |
| 0.0001 to 10 µM | 0.0001 to 10 µM | CC(C)(C1CCN(C(=O)NCC2CCC2)CC1)[C@H](O)c1cc(Cl)cc2cn[nH]c12 [Compound P-0582, (S)-4-(1-(5-chloro-1H-indazol-7-yl)-1-hydroxy-2-methylpropan-2-yl)-N-(cyclobutylmethyl) piperidine-1-carboxamide] |
